Assay [1] concerns UWB1.289 cells. Description: Cell proliferation inhibitory activity in BRCA1/2-mutant or HRD-positive cells (Cell Titer-Glo). The class given is cell-based. The note with it: UWB1.289 cells, 144 hours after compound treatment, Cell Titer-Glo, 1.5 nM to 10 µM, read-out: GI50 UWB1.289 BRCA1 mut. The procedure: <Experimental Example 2> Evaluation of Cell Proliferation Inhibitory Activity in BRCA1/2-Mutant or HRD-Positive Cells
To evaluate the inhibitory activity of the compound according to the present invention on the proliferation of BRCA1/2 mutants or homologous recombination deficient (HRD) positive cell lines, the following experiments were performed. UWB1.289 cells were cultured in medium (50% MEBM + 50% RPMI1640), and 1,000 cells were seeded in a well plate (black clear bottom 96-well plate, Corning) 16 to 24 hours prior to compound treatment. The compounds were diluted in dimethyl sulfoxide (3-fold serial dilution starting at 10 µM, for a total of 10 concentrations) and injected at 1 µl per well, resulting a final concentration range of […] to 10 µM. Measurements of live cells were performed by a reaction in a 37 °C and CO2 incubator for 144 hours after compound treatment. The cells were incubated for 10 minutes in an incubator using Cell Titer-Glo luminescent cell-viability reagent (Promega), and luminescence intensity thereof was measured using a reader (SynergyNeo2, Biotek). GI50 values were calculated using the GraphPad Prism version 8.4.3 (GraphPad software Inc., San Diego) program.

Assay [2] deals with T1, recombinant USP1 protein (Homo sapiens, UniProt O94782, DEL125-138/DEL229-408/DEL608-737).
T1 sequence (O94782 with tags, fused parts or gaps DEL125-138/DEL229-408/DEL608-737): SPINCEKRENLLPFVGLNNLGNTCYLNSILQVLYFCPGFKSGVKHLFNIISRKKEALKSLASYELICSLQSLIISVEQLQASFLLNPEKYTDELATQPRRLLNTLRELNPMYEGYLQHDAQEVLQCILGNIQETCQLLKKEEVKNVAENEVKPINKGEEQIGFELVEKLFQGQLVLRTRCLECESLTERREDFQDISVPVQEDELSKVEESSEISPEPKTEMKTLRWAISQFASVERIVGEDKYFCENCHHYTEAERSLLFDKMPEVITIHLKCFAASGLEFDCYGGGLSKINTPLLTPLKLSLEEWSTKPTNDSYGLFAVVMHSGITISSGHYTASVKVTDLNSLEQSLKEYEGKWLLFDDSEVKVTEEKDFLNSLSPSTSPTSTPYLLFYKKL
The assay is described as follows: Binding affinity to recombinant USP1 protein by differential scanning fluorimetry. Conditions: compound 100 µM, 0.03 mg/mL USP1 (Δ1-66, Δ125-138, Δ229-408, Δ608-737), Tm with compound minus Tm with DMSO; for ΔTm at 100 µM: read-out: ΔTm (°C). How it is done: <Experimental Example 1> Confirmation and evaluation of the binding affinity to recombinant USP1 protein
To evaluate the binding affinity of the compounds of the present invention to the USP1 protein, the following experiment was performed using differential scanning fluorimetry.
Recombinant 0.03 mg/mL USP1 (Δ1-66, Δ125-138, Δ229-408, Δ608-737) protein, dye reagent, and buffer solution (50 mM Tris-HCl pH 8.0, 150 mM NaCl, 2% glycerol, 1 mM DTT) were mixed and 19 µL of the mixture was dispensed into a well plate (MicroAmp Fast 96-Well Reaction plate, 0.1 mL). Each compound was injected at a final concentration of 100 µM in an amount of 1 µL, and the plate containing a total of 20 µL was sealed with MicroAmp Optical Adhesive Film. The melting temperature (Tm) of the protein in each well was measured using a real-time PCR (RT-PCR) device. The difference between the Tm of the sample containing the compound and the Tm containing DMSO is referred to as delta Tm (ΔTm), where a larger ΔTm value indicates stronger binding affinity. The degree of temperature at which the protein is modified in the presence of the compound compared to DMSO was calculated according to Equation 1 below: [formula]

Read-outs that look alike come from different tables or passages of the source.

For “2-(4-cyclopropyl-6-ethoxypyrimidi n-5-yl)-7-(4-(1-isopropyl-4-(trifluorometh yl)-1H-imidazol-2-yl)benzyl)-N-methyl-7H-pyrrolo[2,3-d]pyrimidine-6-carboxamide [Example 63]”, the GI50 in assay [1] is below 0.1 µM. Further, the “ΔTm (°C)” value in assay [2] was “A (ΔTm (°C) > 5 °C)”. Regarding “2-(4-cyclopropyl-6-methoxypyrimid in-5-yl)-N-((3,3-difluorocyclob utyl)methyl) - 7-(4-(1-isopropyl-4-(trifluorometh yl)-1H-imidazol-2-yl)benzyl)-7H-pyrrolo[2,3-d]pyrimidine-6-carboxamide [Example 84]”, the GI50 in assay [1] lay in the range of 0.1 to 0.5 µM.

On to `CNC(=O)c1cc2cnc(-c3c(OC)ncnc3C3CC3)nc2n1Cc1ccc(-c2nc(C(F)(F)F)cn2C(C)C)cc1` [Example 1, 2-(4-cyclopropyl-6-methoxypyrimidin-5-yl)-7-(4-(1-isopropyl-4-(trifluoromethyl)-1H-imidazol-2-yl)benzyl)-N-methyl-7H-pyrrolo[2,3-d]pyrimidine-6-carboxamide], for which, in assay [1] (UWB1289), the GI50 is below 0.1 µM. Also, in assay [2], the ΔTm at 100 µM is above 5 °C. The corresponding values for `CNC(=O)c1cc2cnc(-c3ccccc3C(C)C)nc2n1Cc1ccc(-c2nc(C(F)(F)F)cn2C(C)C)cc1` [Example 2, 7-(4-(1-isopropyl-4-(trifluoromethyl)-1H-imidazol-2-yl)benzyl)-2-(2-isopropylphenyl)-N-methyl-7H-pyrrolo[2,3-d]pyrimidine-6-carboxamide] are below 0.1 µM and above 5 °C.

For the compound `[2H]C([2H])([2H])Oc1ncnc(C2CC2)c1-c1ncc2cc(C(=O)NC)n(Cc3ccc(-c4nc(C(F)(F)F)cn4C(C)C)cc3)c2n1` [Example 3, 2-(4-cyclopropyl-6-(methoxy-d3)pyrimidin-5-yl)-7-(4-(1-isopropyl-4-(trifluoromethyl)-1H-imidazol-2-yl)benzyl)-N-methyl-7H-pyrrolo[2,3-d]pyrimidine-6-carboxamide], the GI50 in assay [1] (UWB1289) was below 0.1 µM. Further, the ΔTm at 100 µM in assay [2] is above 5 °C.

Take `CCNC(=O)c1cc2cnc(-c3c(OC)ncnc3C3CC3)nc2n1Cc1ccc(-c2nc(C(F)(F)F)cn2C(C)C)cc1` [Example 4, 2-(4-cyclopropyl-6-methoxypyrimidin-5-yl)-N-ethyl-7-(4-(1-isopropyl-4-(trifluoromethyl)-1H-imidazol-2-yl)benzyl)-7H-pyrrolo[2,3-d]pyrimidine-6-carboxamide]: the GI50 in assay [1] (UWB1289) is below 0.1 µM. For the same compound, in assay [2], the ΔTm at 100 µM is above 5 °C.

Regarding `COc1ncnc(C2CC2)c1-c1ncc2cc(C(=O)N(C)C)n(Cc3ccc(-c4nc(C(F)(F)F)cn4C(C)C)cc3)c2n1` [Example 5, 2-(4-cyclopropyl-6-methoxypyrimidin-5-yl)-7-(4-(1-isopropyl-4-(trifluoromethyl)-1H-imidazol-2-yl)benzyl)-N,N-dimethyl-7H-pyrrolo[2,3-d]pyrimidine-6-carboxamide], the GI50 in assay [1] (UWB1289) is below 0.1 µM. In addition, the ΔTm at 100 µM in assay [2] was above 5 °C.

Turning to `CC[C@@H](C)NC(=O)c1cc2cnc(-c3c(OC)ncnc3C3CC3)nc2n1Cc1ccc(-c2nc(C(F)(F)F)cn2C(C)C)cc1` [Example 92, (R)-N-(sec-butyl)-2-(4-cyclopropyl-6-methoxypyrimidin-5-yl)-7-(4-(1-isopropyl-4-(trifluoromethyl)-1H-imidazol-2-yl)benzyl)-7H-pyrrolo[2,3-d]pyrimidine-6-carboxamide], the GI50 in assay [1] (UWB1289) is below 0.1 µM. On to `COc1ncnc(C2CC2)c1-c1ncc2cc(C(=O)NO)n(Cc3ccc(-c4nc(C(F)(F)F)cn4C(C)C)cc3)c2n1` [Example 120, 2-(4-cyclopropyl-6-methoxypyrimidin-5-yl)-N-hydroxy-7-(4-(1-isopropyl-4-(trifluoromethyl)-1H-imidazol-2-yl)benzyl)-7H-pyrrolo[2,3-d]pyrimidine-6-carboxamide], for which, in assay [2], the ΔTm at 100 µM is above 5 °C.

Regarding `COc1ncnc(C2CC2)c1-c1ncc2cc(C(=O)NC[C@H]3CCCN3C)n(Cc3ccc(-c4nc(C(F)(F)F)cn4C(C)C)cc3)c2n1` [Example 136, (R) -2-(4-cyclopropyl-6-methoxypyrimidin-5-yl)-7-(4-(1-isopropyl-4-(trifluoromethyl)-1H-imidazol-2-yl)benzyl)-N-((1-methylpyrrolidin-2-yl)methyl)-7H-pyrrolo[2,3-d]pyrimidine-6-carboxamide], in assay [1] (UWB1289), the GI50 is below 0.1 µM. Consider `COc1ncnc(C2CC2)c1-c1ncc2cc(C(N)=O)n(Cc3ccc(-c4nc(C(F)(F)F)cn4C)cc3)c2n1` [Example 148, 2-(4-cyclopropyl-6-methoxypyrimidin-5-yl)-7-(4-(1-methyl-4-(trifluoromethyl)-1H-imidazol-2-yl)benzyl)-7H-pyrrolo[2,3-d]pyrimidine-6-carboxamide], for which the GI50 in assay [1] (UWB1289) is below 0.1 µM. Consider `COc1ncnc(C2CC2)c1-c1ncc2cc(C(=O)NC3CCNCC3)n(Cc3ccc(-c4nc(C(F)(F)F)cn4C(C)C)cc3)c2n1` [Example 159, 2-(4-cyclopropyl-6-methoxypyrimidin-5-yl)-7-(4-(1-isopropyl-4-(trifluoromethyl)-1H-imidazol-2-yl)benzyl)-N-(piperidin-4-yl)-7H-pyrrolo[2,3-d]pyrimidine-6-carboxamide], for which the GI50 in assay [1] (UWB1289) lay within 0.1 to 0.5 µM. In the case of `COCCN1CC[C@@H](NC(=O)c2cc3cnc(-c4c(OC)ncnc4C4CC4)nc3n2Cc2ccc(-c3nc(C(F)(F)F)cn3C)cc2)[C@@H](F)C1` [Example 160, 2-(4-cyclopropyl-6-methoxypyrimidin-5-yl)-N-((3S,4R)-3-fluoro-1-(2-methoxyethyl)piperidin-4-yl)-7-(4-(1-methyl-4-(trifluoromethyl)-1H-imidazol-2-yl)benzyl)-7H-pyrrolo[2,3-d]pyrimidine-6-carboxamide], the ΔTm at 100 µM in assay [2] is above 5 °C. On to `COc1ncnc(C2CC2)c1-c1ncc2cc(C(=O)N3CCCC3)n(Cc3ccc(-c4nc(C(F)(F)F)cn4C)cc3)c2n1` [Example 192, (2-(4-cyclopropyl-6-methoxypyrimid in-5-yl)-7-(4-(1-methyl-4-(trifluoromethyl)-1H-imidazol-2-yl)benzyl)-7H-pyrrolo[2,3-d]pyrimidin-6-yl) (pyrrolidin-1-yl)methanone], for which the ΔTm at 100 µM in assay [2] is above 5 °C. In the case of `CNC(=O)c1cc2cnc(-c3c(O)ncnc3C3CC3)nc2n1Cc1ccc(-c2nc(C(F)(F)F)cn2C)cc1` [Example 206, 2-(4-cyclopropyl-6-hydroxypyrimidin-5-yl)-N-methyl-7-(4-(1-methyl-4-(trifluoromethyl)-1H-imidazol-2-yl)benzyl)-7H-pyrrolo[2,3-d]pyrimidine-6-carboxamide], the ΔTm at 100 µM in assay [2] was below 5 °C. Regarding `CNC(=O)c1cc2cnc(-c3c(OC)ncnc3C3CC3)nc2n1Cc1ccc(-n2nc(C(F)(F)F)cc2C(=O)O)cc1` [Example 213, 1-(4-((2-(4-cyclopropyl-6-methoxypyrimidin-5-yl)-6-(methylcarbamoyl)-7H-pyrrolo[2,3-d]pyrimidin-7-yl)methyl)phenyl)-3-(trifluoromethyl)-1H-pyrazol-5-carboxylic acid], the ΔTm at 100 µM in assay [2] was below 5 °C. `CNC(=O)c1cc2cnc(-c3c(OC)ncnc3C3CC3)nc2n1CC12CCC(c3nc(C(F)(F)F)cn3C(C)C)(CC1)CO2` [Example 226, 2-(4-cyclopropyl-6-methoxypyrimidin-5-yl)-7-(((1s,4s)-4-(1-isopropyl-4-(trifluoromethyl)-1H-imidazol-2-yl)-2-oxabicyclo[2.2 .2]octan-1-yl)methyl)-N-methyl-7H-pyrrolo[2,3-d]pyrimidine-6-carboxamide]: the ΔTm at 100 µM in assay [2] is below 5 °C.

The record behind these values is patent publication EP4806898A1, “HETEROARYL DERIVATIVE COMPOUND AND USE THEREOF” (Voronoi Inc., priority 2023, dated 2025).
